# Assay results taken from patent US8618178B2, “Method and substances for treating T-cell mediated autoimmune diseases” (Eberhard-Karls-Universitaet Tuebingen Universitaetsklinikum, priority 2006, dated 2013).
# Counter-ions that a name gives are not always drawn.
# Key:
# [1] = test system: ovalbumin-specific CD4+ T cells; assay: Priming of ovalbumin-specific CD4+ T cells with treated DC, IFN-γ and IL-4 by ELISA; type: cell-based, mouse; conditions: restimulated with fresh APC and antigen
# Description: (§1) IL-4, IL-10, IL-12 and interferon-γ were determined using the ELISA (enzyme linked immunosorbent assay) set or with the use of individual components from BD BioSciences. IL-23 in the supernatant was determined using the ELISA set (eBioscience). For intracytoplasmic cytokine analyses, the T cells were restimulated with PMA/ionomycin or with APC and peptide in the presence of brefeldin A, then fixed and permeabilized and stained. For the surface staining, anti-CD4 or KJ1-26 antibodies were used; the cytokine antibodies (PE labeled) were all obtained from BD Pharmingen.
# The CD4+ T cells of DO11.10 mice were sorted using MACS magnet beads (Miltenyi Biotech). By culturing of DC on day seven with either medium and DMSO or DMF for 2 hours, DC^GSHhigh or DC^GSHlow could be generated. After four-hour stimulation with LPS or CpG-DNA/IL-4, the DC^GSHhigh or DC^GSHlow were used for the stimulation of DO11.10 T cells with 10 μg/ml ovalbumin peptide 323-339 for two days. The T cells were expanded with 50 U/ml IL-2 (Chiron Therapeutics). The cells were washed on day 10 and restimulated with fresh APC. The analysis was performed with the supernatants after 24 hrs. CD4^+ T cells were obtained from SJL mice immunized with PLP peptide using MACS magnet beads and stimulated with irradiated APC and PLP peptide 139-151 in the presence of L-BSO, DMF or only in medium as control. […]
# [2] = test system: IL-23; assay: IL-23 production by DC, ELISA of culture supernatants; type: cell-based, mouse
# Description: as §1
# As antigen presenting cells (APC), T cell depleted spleen cells from syngenic mice were used. Dendritic cells (DC) which were obtained from bone marrow (BMDC) and cultured with GM-CSF were used for the relevant experiments on day 7 of culturing. For the experiment, in each case an equal number of APC were cultured either with the medium alone, with L-BSO (C8H18N2O3S, 0.5 mM), dimethyl sulfoxide DMSO(C2H6OS), dimethyl fumarate DMF (C6H8O4, dissolved in DMSO, 70 μM), or calcium monomethyl fumarate (MMF; CaC10H10O8, 200 μM). All substances except for MMF (Fumapharm) were purchased from Sigma-Aldrich. At the respective stated times (see below) the cells were either analyzed directly for their GSH content, used for T cell stimulation or stimulated for […] with Escherichia coli lipopolysaccharides 055.B5 (Sigma-Aldrich) or CpG-DNA 1668 (MWG Biotech) and IL-4 (Stratmann). In order to raise the GSH level again, 1 mM GSH-OEt (C12H21N3O6S; Sigma-Aldrich) or 1 mM NAC (Sigma-Aldrich) was added. The GSH reservoirs in mice were depleted by feeding with DMF or MMF, and in man by treatment with Fumaderm®.
smiles,measurement,setting,value
"COC(=O)/C=C/C(=O)OC [DMF, dimethyl fumarate]",IFN-γ production of TH cells induced by treated DC,[1],little IFN-γ
same,IL-4 production of TH cells induced by treated DC,[1],much IL-4
same,lowering of LPS-induced IL-23 production in DC cultivated from bone marrow,[2]; LPS-induced,"up to 10,000 fold"
same,IL-23 production by DC,"[2]; after stimulation with LPS, compared to controls (DMSO)",markedly less
